Experimental data reported in ChEMBL document CHEMBL1137513, “Synthesis and biological activities of quinazoline derivatives with ortho-phenol-quaternary ammonium salt groups” (Bioorg Med Chem, 2007).
Calls of active or inactive are those of the source. No cut-off for these calls is given here.

Columns and labels:
Escherichia phage T7 [1] = assay: Inhibition of T7 RNA polymerase transcription at 5 uM after irradiation; format: functional
DNA = assay: Binding affinity to calf thymus DNA at 2 uM by thermal denaturation study; format: nucleic-acid assay; conditions: Bos taurus
Escherichia phage T7 [2] = assay: Inhibition of T7 RNA polymerase transcription at 10 uM after irradiation; format: functional
Escherichia coli [3] = assay: Induction of pBR322 DNA interstand cross link at 100 uM by agarose gel electrophoresis assay
Escherichia phage T7 [4] = assay: Inhibition of T7 RNA polymerase transcription at 20 uM after irradiation; format: functional
Escherichia coli [5] = assay: Induction of pBR322 DNA interstand cross link at pH 7.7 by agarose gel electrophoresis assay
Escherichia coli [6] = assay: Induction of pBR322 DNA interstand cross link at 1 uM by agarose gel electrophoresis assay
Escherichia coli [7] = assay: Induction of pBR322 DNA interstand cross link at 5 uM by agarose gel electrophoresis assay

Compound | Activity (Escherichia phage T7 [1]) | ΔTm (DNA) | Activity (Escherichia phage T7 [2]) | Activity (Escherichia coli [3]) | Activity (Escherichia phage T7 [4]) | Activity (Escherichia coli [5]) | Activity (Escherichia coli [6]) | Activity (Escherichia coli [7])
COc1cc2nc(Nc3ccc(O)c(C[N+](C)(C)C)c3)nc(N)c2cc1OC | Active | 7.4 °C | Active |  |  |  |  | 
C[N+](C)(C)Cc1cc(CCC(=O)NCCNC(=O)CCc2ccc(O)c(C[N+](C)(C)C)c2)ccc1O |  | 0.5 °C |  | inactive | inactive |  |  | 
COc1cc2nc(Nc3ccc(O)c(C[N+](C)(C)C)c3)nc(Nc3ccc(O)c(C[N+](C)(C)C)c3)c2cc1OC | Active | 8.6 °C | Active | Active |  | Active | 28% | 46%
COc1cc2nc(Cl)nc(Nc3ccc(O)c(C[N+](C)(C)C)c3)c2cc1OC | Active | 5.8 °C | Active |  |  |  |  | 
